# Experimental data published in patent publication US4946839A, “Azetidine derivatives, compositions and methods of treating” (priority 1987, dated 1990).
# Columns and labels:
# GP1 receptor = assay: PI hydrolysis stimulated by GLU in cerebellar granule cells; assay type: cell-based, rat; details: 20 μM GLU (Table 2); * = antagonistic activity
# Description: (§1) Studies described hereinbelow on the usefulness of the compounds were performed on primary cultures of cerebellar granule cells prepared from 8-day old rats according to the procedures as set forth in Wroblewski et al., Neuropharmacology 24(9), 919-921 (1985). These cultures are characterized by the presence of four subtypes of excitatory amino acid receptors, classified on the basis of the coupling of their recognition sites to specific signal transduction systems, as well as according to the pharmacology of their recognition sites. The classification distinguishes between excitatory amino acid recognition sites coupled with PI hydrolysis (Gp) and those coupled with the activation of Ca^2+ (GC). This is disclosed in greater detail in Wroblewski et al. Proc. Natl. Acad. Sci. […], 5068-5072 (1987) GP1 and GC1 receptors are activated by glutamate, aspartate, N-methyl-D-aspartate (NMDA), antagonized by 2-amino-5-phosphonovalerate (APV), and inhibited by Mg^2+ . These two receptor subtypes correspond to the NMDA receptor, however, two distinct receptors must be postulated on the basis of their signal transducing mechanisms. The GP2 receptor is activated by glutamate and quisqualate, and is insensitive to Mg^2 + and APV. The GC2 receptor is activated by kainate and preferentially antagonized by cis-piperidine-2,3-dicarboxylate. The GC2 receptor is also insensitive to Mg^2+ inhibition. These two receptors correspond to the quisqualate and kainate receptors, respectively.
# (§2) Cis-azetidine-2,4-dicarboxylic acid and derivatives selectively potentiate signal transduction at the GC1 and GP1 receptors. Referring to Table 1 the influx of calcium stimulated by NMDA, GLU, ASP and […] acting at the GC1 receptor is potentiated by cis-azetidine-2,4-dicarboxylic acid, while the action of KAIN at the GC2 receptor is not affected.
# GC1 receptor [1] = assay: calcium influx stimulated by excitatory amino acids in primary cultures of cerebellar granule cells (GC1); assay type: cell-based, rat; details: for Calcium Influx % of stimulation by 10 μM GLU: 10 μM GLU (Table 2)
# Description: as §1, §2
# NMDA receptor subtype [2] = details: icv NMDA; cited from earlier work
# GC1 receptor [3] = assay: inhibition of ASP-stimulated calcium influx by phencyclidine and its prevention; assay type: cell-based, rat
# Description: as §1
# (§3) Phencyclidine (PCP), once used as an anaesthetic, produces strong psychotropic effects manifested in humans by a state of sensory isolation, hallucinations and confusional states. It is one of the most widely abused drugs in the United States. One of the possible mechanisms of action of PCP involves the noncompetitive inhibition of the signal transduction at excitatory amino acid receptors, through allosteric interaction at a site distinct from the primary transmitter site (see Proc. Natl. Acad. Sci. USA discussed above).
# GC1 receptor [4] = assay: calcium influx stimulated by GLU in the absence and presence of Az5; assay type: cell-based, rat
# Description: as §1
# Azxetidines increase the potency but not the efficacy of GLU action at the GC1 receptor. […] This indicates a 7-fold potentiation of the action of GLU.
# binding site for PCP = assay: [^3 H]PCP radioligand binding; details: radioligand binding studies
# Text: as §3
# NMDA receptor subtype [5] = assay: cGMP content in the cerebellum after icv injection of NMDA; assay type: in vivo, rat; set-up: cGMP: unit not given here
# Description: The action of the NMDA receptor subtype can be estimated in vivo by measuring the changes in the content of cyclic GMP (cGMP) in the rat cerebellum after intracerebroventricular injections of NMDA. […] In terms of its pharmacology and of its mechanism of signal transduction the active receptor in the above conditions can be compared to the CC1 reporter measured in cultures of cerebellar granule cells.
# In two series of experiments rats were injected icv with NMDA together with or without cis-azetidine-2,4-dicarboxylic acid.
# GC2 receptor = assay: calcium influx stimulated by kainate at the GC2 receptor in cerebellar granule cells; assay type: cell-based, rat
# Description: as §1, with “These two receptors correspond to the quisqualate and kainate receptors, respectively.” left out
compound,measurement,setting,value
"COC(=O)[C@@H]1C[C@H](C(=O)OC(C)(C)C)N1 (relative stereo) [Az1, cis-azetidine-2,4-dicarboxylic acid t-butyl methyl ester]",PI hydrolysis % of stimulation by 20 μM GLU,GP1 receptor,117%
same,Calcium Influx % of stimulation by 10 μM GLU,GC1 receptor [1],107%
same,% activity (potentiation of calcium influx),GC1 receptor [1]; agonist Glu 10 μM (Table 3),107%
"COC(=O)[C@H]1C[C@H](C(=O)OC(C)(C)C)N1 (relative stereo) [Az2, trans-azetidine-2,4-dicarboxylic acid-t-butyl methyl ester]",Calcium Influx % of stimulation by 10 μM GLU,GC1 receptor [1],104%
"CC(C)(C)OC(=O)[C@H]1C[C@@H](C(=O)O)N1 (relative stereo) [Az3, cis-azetidine-2,4-dicarboxylic acid mono-t-butyl ester]",PI hydrolysis % of stimulation by 20 μM GLU,GP1 receptor,125%
same,Calcium Influx % of stimulation by 10 μM GLU,GC1 receptor [1],141%
same,% activity (potentiation of calcium influx),GC1 receptor [1]; agonist Glu 10 μM (Table 3),141%
same,% activity (potentiation of calcium influx),GC1 receptor [1]; agonist Glu 20 μM (Table 3),136%
"CC(C)(C)OC(=O)[C@H]1C[C@H](C(=O)O)N1 (relative stereo) [Az4, trans-azetidine-2,4-dicarboxylic acid mono-t-butyl ester]",PI hydrolysis % of stimulation by 20 μM GLU,GP1 receptor,109%
same,Calcium Influx % of stimulation by 10 μM GLU,GC1 receptor [1],100%
"O=C(O)[C@H]1C[C@H](C(=O)O)N1 (relative stereo) [Az6, trans-azetidine-2,4-dicarboxylic acid]",PI hydrolysis % of stimulation by 20 μM GLU,GP1 receptor,83%
same,Calcium Influx % of stimulation by 10 μM GLU,GC1 receptor [1],103%
"NC(=O)[C@@H]1C[C@H](C(=O)O)N1 (relative stereo) [Az8, cis-4-carbamoylazetidine-2-carboxylic acid]",% activity (potentiation of calcium influx),GC1 receptor [1]; agonist Asp 20 μM (Table 3),150%
"COC(=O)[C@H]1C[C@@H](C(=O)O)N1 (relative stereo) [Az11, cis-azetidine-2,4-dicarboxylic acid methyl ester]",% activity (potentiation of calcium influx),GC1 receptor [1]; agonist Glu 10 μM (Table 3),122%
"O=C(O)[C@H]1C[C@@H](CO)N1 (relative stereo) [Az13, cis-4-(hydroxymethyl)azetidine-2-carboxylic acid]",% activity (potentiation of calcium influx),GC1 receptor [1]; agonist Asp 10 μM (Table 3),159%
"NC(CCCP(=O)(O)O)C(=O)O (centres unmarked) [APV, 2-amino-5-phosphonovaleric acid]",effect on increases in cGMP content induced by NMDA,NMDA receptor subtype [2],antagonized
"N[C@@H](CC(=O)O)C(=O)O [ASP, Aspartate, reference compound]",ASP-stimulated calcium influx,"GC1 receptor [3]; ASP 50 μM, no PCP",31.3 ± 3.4 nmol ^45 Ca^2+ /mg protein
"O=C(O)[C@@H]1C[C@H](C(=O)O)N1 [Az5, cis-azetidine-2,4-dicarboxylic acid]",potentiation of the action of GLU,"GC1 receptor [4]; 50 μM Az5, from EC50 of GLU",7 fold
same,displacement of specific [^3 H]PCP binding,binding site for PCP,failed to displace the specific binding of [^3 H]PCP
same,ASP-stimulated calcium influx,"GC1 receptor [3]; ASP 50 μM + Az5 50 μM, PCP 20 nM",57.2 ± 3.2 nmol ^45 Ca^2+ /mg protein
same,ASP-stimulated calcium influx,"GC1 receptor [3]; ASP 50 μM + Az5 50 μM, PCP 50 nM",32.2 ± 1.3 nmol ^45 Ca^2+ /mg protein
same,ASP-stimulated calcium influx,"GC1 receptor [3]; ASP 50 μM + Az5 50 μM, PCP 100 nM",13.3 ± 0.3 nmol ^45 Ca^2+ /mg protein
same,ASP-stimulated calcium influx,"GC1 receptor [3]; ASP 50 μM + Az5 50 μM, no PCP",64.5 ± 2.6 nmol ^45 Ca^2+ /mg protein
same,action of PCP on ASP-stimulated signal transduction,GC1 receptor [3]; with PCP,exhibits the ability to decrease the action of PCP on ASP-stimulated signal transduction
same,cGMP,"NMDA receptor subtype [5]; 5 min, Az5 2 μg",6.8 ± 0.8
same,cGMP % Control,"NMDA receptor subtype [5]; 5 min, Az5 2 μg",142 % Control
same,cGMP,"NMDA receptor subtype [5]; 5 min, NMDA + Az5 together",16.1 + 2.9
same,cGMP % Control,"NMDA receptor subtype [5]; 5 min, NMDA + Az5 together",334 % Control
same,cGMP,"NMDA receptor subtype [5]; 10 min, Az5 10 μg",14.9 ± 1.3
same,cGMP % Control,"NMDA receptor subtype [5]; 10 min, Az5 10 μg",192 % Control
same,cGMP,"NMDA receptor subtype [5]; 10 min, NMDA + Az5 together",16.5 + 2.8
same,cGMP % Control,"NMDA receptor subtype [5]; 10 min, NMDA + Az5 together",211 % Control
same,effect on action of endogenous receptor agonist and injected NMDA,NMDA receptor subtype [5]; both series,potentiated the action of the endogenous receptor agonist as well as the action of injected NMDA
same,effect on the action of KAIN,GC2 receptor; GC2 receptor,not affected
same,Percent Activity (potentiation of calcium influx),GC2 receptor; agonist Kainate 20 μM,104%
same,PI hydrolysis % of stimulation by 20 μM GLU,GP1 receptor,124%
same,Calcium Influx % of stimulation by 10 μM GLU,GC1 receptor [1],207%
same,"effect on calcium influx stimulated by NMDA, GLU, ASP and QUIS",GC1 receptor [1]; GC1 receptor,potentiated
same,% activity (potentiation of calcium influx),GC1 receptor [1]; agonist Asp 10 μM (Table 3),196%
same,% activity (potentiation of calcium influx),GC1 receptor [1]; agonist Asp 20 μM (Table 3),141%
same,Percent Activity (potentiation of calcium influx),GC1 receptor [1]; agonist Aspartate (ASP) 20 μM,144%
same,% activity (potentiation of calcium influx),GC1 receptor [1]; agonist Glu 10 μM (Table 3),207%
same,% activity (potentiation of calcium influx),GC1 receptor [1]; agonist Glu 20 μM (Table 3),157%
same,Percent Activity (potentiation of calcium influx),GC1 receptor [1]; agonist Glutamate (GLU) 20 μM,169%
same,Percent Activity (potentiation of calcium influx),GC1 receptor [1]; agonist NMDA 20 μM,188%
same,Percent Activity (potentiation of calcium influx),GC1 receptor [1]; agonist Quisqualate (QUIS) 20 μM,124%
"COC(=O)[C@@H]1C[C@H](C(=O)OC)N1 [Az7, cis-azetidine-2,4-dicarboxylic acid dimethyl ester]",% activity (potentiation of calcium influx),GC1 receptor [1]; agonist Glu 50 μM (Table 3),68%
"NC(=O)[C@@H]1C[C@H](C(N)=O)N1 [Az9, cis-azetidine-2,4-dicarboxamide]",% activity (potentiation of calcium influx),GC1 receptor [1]; agonist Asp 20 μM (Table 3),106%
"O=C(O)[C@H]1C[C@@H](C(=O)O)N1Cc1ccccc1 [Az10, cis-N-benzylazetidine-2,4-dicarboxylic acid]",% activity (potentiation of calcium influx),GC1 receptor [1]; agonist Asp 10 μM (Table 3),121%
"O=C(O)[C@@H]1CCN1 [Az12, L-2-azetidinecarboxylic acid, reference compound]",% activity (potentiation of calcium influx),GC1 receptor [1]; agonist Glu 20 μM (Table 3),110%
"N[C@@H](CCC(=O)O)C(=O)O [GLU, Glutamate]",EC50,GC1 receptor [4]; in the absence of Az5,51 µM
same,EC50,GC1 receptor [4]; in the presence of 50 μM Az5,7 µM
"CN[C@H](CC(=O)O)C(=O)O [NMDA, N-methyl-D-aspartate, reference compound]",cGMP,"NMDA receptor subtype [5]; 5 min, NMDA 2 μg",5.6 ± 0.8
same,cGMP % Control,"NMDA receptor subtype [5]; 5 min, NMDA 2 μg",136 % Control
same,cGMP,"NMDA receptor subtype [5]; 10 min, NMDA 1 μg",10.5 ± 2.3
same,cGMP % Control,"NMDA receptor subtype [5]; 10 min, NMDA 1 μg",135 % Control
"c1ccc(C2(N3CCCCC3)CCCCC2)cc1 [PCP, phencyclidine, reference compound]",ASP-stimulated calcium influx,"GC1 receptor [3]; ASP 50 μM, PCP 20 nM",23.0 ± 1.7 nmol ^45 Ca^2+ /mg protein
same,ASP-stimulated calcium influx,"GC1 receptor [3]; ASP 50 μM, PCP 50 nM",9.2 ± 0.5 nmol ^45 Ca^2+ /mg protein
same,ASP-stimulated calcium influx,"GC1 receptor [3]; ASP 50 μM, PCP 100 nM",0.7 ± 0.1 nmol ^45 Ca^2+ /mg protein
